Data on nine compounds can be found in US12410136B2, “Pyridinyl morpholine compound, preparation method therefor, and application thereof” (SHANGHAI ZHONGZE THERAPEUTICS, CO. LTD., priority 2020, dated 2025).

One test concerns the target T1, 5-HT2A receptor (Homo sapiens, UniProt P28223).
T1 construct: expressed in transfected cells; host or cells: HEK293
Briefly: 5-HT2A receptor binding test. Particulars: [3H]-Ketanserin, 5-HT2A receptor expressed in HEK293 cells; read-out: Affinity of the compound for each receptor (Ki value, nM) 5-HT2A. From the text: 5-HT2A Receptor Binding Test
Beckman LS-6500 multifunctional liquid scintillation counter.
Tris-HCl reaction buffer (pH 7.7) was used to resuspend in the experiment.

The next test has as its target T2, H1 receptor (Homo sapiens, UniProt P35367).
T2 construct: expressed in transfected cells; host or cells: HEK-293
Description: H1 receptor binding test. As to conditions: 1 nM [3H]pyrilamine, HEK-293 cell membrane homogenate; read-out: Affinity of the compound for H1 receptor (Ki value, nM) H1. As to the method:
Non-specific binding was determined in the presence of 1 μM pyrilamine.

Test [1] addresses T3, human recombinant D3 receptor (Homo sapiens, UniProt P35462).
T3 construct: expressed in transfected cells; host or cells: CHO
Description: Dopamine D3 receptor binding test. Particulars: [3H]methyl-spiperone 0.3 nM, human recombinant D3 receptor expressed in CHO cells; read-out: Affinity of the compound for each receptor (Ki value, nM) D3. The procedure:
Dopamine D3 Receptor Binding Test
[^3H]methyl-spiperone (0.3 nM) was used as the ligand, and (+)-butaclamol (10 μM) was used to determine the non-specific binding, and the binding assay was performed on human recombinant D3 receptor (expressed in CHO cells).

A further test deals with D2 receptor (Homo sapiens, UniProt P14416). Description: Dopamine D2 receptor binding test.

By Ki is commonly meant the equilibrium dissociation constant of an inhibitor or competing ligand from its target.

T1 sequence (P28223 whole entry): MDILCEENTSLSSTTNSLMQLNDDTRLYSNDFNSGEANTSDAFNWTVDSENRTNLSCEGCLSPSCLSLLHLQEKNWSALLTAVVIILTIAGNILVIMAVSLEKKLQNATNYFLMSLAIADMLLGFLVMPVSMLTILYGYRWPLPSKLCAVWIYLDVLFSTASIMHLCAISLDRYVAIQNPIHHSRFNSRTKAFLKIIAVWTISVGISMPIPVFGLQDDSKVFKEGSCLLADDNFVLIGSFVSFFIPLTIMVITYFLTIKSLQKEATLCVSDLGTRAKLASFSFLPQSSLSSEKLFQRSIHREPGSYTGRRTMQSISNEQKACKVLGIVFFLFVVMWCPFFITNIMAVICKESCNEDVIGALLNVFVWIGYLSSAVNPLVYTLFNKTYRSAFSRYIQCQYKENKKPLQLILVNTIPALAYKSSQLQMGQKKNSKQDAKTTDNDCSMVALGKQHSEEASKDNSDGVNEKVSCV
Chain of D2 receptor (P14416 whole entry): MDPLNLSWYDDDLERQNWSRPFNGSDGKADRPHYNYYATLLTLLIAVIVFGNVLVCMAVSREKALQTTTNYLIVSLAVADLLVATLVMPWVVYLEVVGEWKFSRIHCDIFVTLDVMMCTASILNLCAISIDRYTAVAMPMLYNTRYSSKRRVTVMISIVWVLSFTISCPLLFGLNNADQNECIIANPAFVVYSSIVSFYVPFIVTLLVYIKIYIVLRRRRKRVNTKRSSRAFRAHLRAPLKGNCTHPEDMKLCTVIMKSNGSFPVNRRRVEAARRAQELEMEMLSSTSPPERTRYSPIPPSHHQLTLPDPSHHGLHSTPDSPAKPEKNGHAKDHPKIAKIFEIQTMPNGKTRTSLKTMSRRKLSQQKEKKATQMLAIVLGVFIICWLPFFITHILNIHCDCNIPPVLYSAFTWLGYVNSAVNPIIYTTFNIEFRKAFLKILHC
T2 sequence (P35367 whole entry): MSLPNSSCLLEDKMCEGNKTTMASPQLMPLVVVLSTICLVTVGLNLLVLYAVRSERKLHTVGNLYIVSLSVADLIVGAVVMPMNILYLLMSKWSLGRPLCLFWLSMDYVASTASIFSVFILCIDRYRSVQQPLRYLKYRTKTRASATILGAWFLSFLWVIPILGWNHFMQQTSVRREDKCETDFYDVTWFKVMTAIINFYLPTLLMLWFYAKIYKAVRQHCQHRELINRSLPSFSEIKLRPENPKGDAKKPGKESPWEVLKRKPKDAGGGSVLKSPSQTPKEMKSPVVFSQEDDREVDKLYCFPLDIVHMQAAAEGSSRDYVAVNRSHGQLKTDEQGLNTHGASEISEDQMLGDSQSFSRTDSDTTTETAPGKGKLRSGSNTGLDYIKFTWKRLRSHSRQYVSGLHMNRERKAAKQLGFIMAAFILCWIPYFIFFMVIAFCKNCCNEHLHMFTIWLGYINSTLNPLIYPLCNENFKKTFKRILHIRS
T3 sequence (P35462 whole entry): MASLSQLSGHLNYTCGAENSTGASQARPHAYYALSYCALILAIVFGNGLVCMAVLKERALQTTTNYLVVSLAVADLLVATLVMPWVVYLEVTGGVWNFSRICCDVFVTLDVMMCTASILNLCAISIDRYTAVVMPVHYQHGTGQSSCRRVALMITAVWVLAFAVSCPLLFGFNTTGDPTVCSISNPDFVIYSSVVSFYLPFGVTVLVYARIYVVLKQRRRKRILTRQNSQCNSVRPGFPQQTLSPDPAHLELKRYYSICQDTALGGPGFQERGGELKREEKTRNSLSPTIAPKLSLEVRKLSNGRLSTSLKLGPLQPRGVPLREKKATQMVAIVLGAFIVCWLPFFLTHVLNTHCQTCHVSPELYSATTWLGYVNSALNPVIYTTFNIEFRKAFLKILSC
Description for D2 receptor: Dopamine D2 Receptor Binding Test
In this experiment, HEK293 cells were transfected with plasmid vector containing D2 receptor protein gene, and calcium phosphate transfection method was used and after transfection, the cells were cultured in a culture solution containing G418, and the cell monoclonal and radioligand binding experiments were selected, and finally a stable cell line which could stably express D2 receptor protein was obtained.
HeK-293 cells were infected with recombinant viruses containing the above various genes respectively, and after 48-72 hours, the receptor proteins were expressed in large quantities on the membrane, and the cells were centrifuged at 1000 rpm for 5 min and then the culture solution was discarded, and the cells were collected, and stored in a −20° C. refrigerator for later use. Tris-HCl reaction buffer (pH=7.5) was used to resuspend in the experiment.
On the Millipore cell sample collector, the mixture was quickly filtrated under reduced pressure through GF/C glass fiber filter paper, and eluted with 3 mL of eluent (50 mMTris-HCl, pH 7.5) for 3 times, then dried under microwave for 5 to 6 min. The filter paper was moved into a 0.5 mL centrifuge tube, and 500 μL of lipid-soluble scintillation solution was added. The mixture was kept in the dark for more than 30 min, and the radioactivity intensity was determined by counting. […] Two replicate tubes were made for each experiment of compound, and two separate experiments were performed.
Two tubes were tested for each concentration and two independent tests were performed for each compound.

As for `CCCC(=O)N[C@H]1CC[C@H](CCN2CCN(c3cc(-c4ccccc4)cc(N4CCOCC4)n3)CC2)CC1` [Compound I-2, N-(trans-4-(2-(4-(6-morpholino-4-phenylpyridin-2-yl)piperazin-1-yl)ethyl)cyclohexyl)butyramide], the Ki on 5-HT2A receptor stood at 1.9 nM; on H1 receptor, 950 nM; in test [1] it was 0.1 nM; on D2 receptor, 1.2 nM.
For `O=C(N[C@H]1CC[C@H](CCN2CCN(c3cc(-c4ccco4)cc(N4CCOCC4)n3)CC2)CC1)N1CCCCC1` [Compound V-4, N-(trans-4-(2-(4-(4-(furan-2-yl)-6-morpholinopyridin-2-yl)piperazin-1-yl)ethyl)cyclohexyl)piperidine-1-carboxamide], in that order: 2.8 nM, more than 1000 nM, 0.3 nM and 10.6 nM.
For `COc1ccc(-c2cc(N3CCOCC3)nc(N3CCN(CC[C@H]4CC[C@H](NC(=O)N5CCOCC5)CC4)CC3)c2)cc1` [III-2, N-(trans-4-(2-(4-(4-(4-methoxyphenyl)-6-morpholinopyridin-2-yl)piperazin-1-yl)ethyl)cyclohexyl)morpholine-4-carboxamide], in that order: 5.1 nM, more than 1000 nM, 0.07 nM and 1.9 nM.
For `COc1ccc(-c2cc(N3CCOCC3)nc(N3CCN(CC[C@H]4CC[C@H](NC(=O)N5CCCCC5)CC4)CC3)c2)cc1` [III-3, N-(trans-4-(2-(4-(4-(4-methoxyphenyl)-6-morpholinopyridin-2-yl)piperazin-1-yl)ethyl)cyclohexyl)piperidine-1-carboxamide], in that order: 12.5 nM, more than 1000 nM, 0.5 nM and 4.6 nM.
Take `CN(C)C(=O)N[C@H]1CC[C@H](CCN2CCN(c3cc(-c4ccccc4)cc(N4CCOCC4)n3)CC2)CC1` [Compound I-7, 1,1-dimethyl-3-(trans-4-(2-(4-(6-morpholino-4-phenylpyridin-2-yl)piperazin-1-yl)ethyl)cyclohexyl)urea]: the Ki at 5-HT2A receptor amounted to 0.2 nM; on H1 receptor, 420 nM; in test [1], 0.01 nM; at D2 receptor it was 0.12 nM.
For `O=C(N[C@H]1CC[C@H](CCN2CCN(c3cc(-c4ccc[nH]4)cc(N4CCOCC4)n3)CC2)CC1)c1ccco1` [VII-2, N-(trans-4-(2-(4-(6-morpholino-4-(1H-pyrrol-2-yl)pyridin-2-yl)piperazin-1-yl)ethyl)cyclohexyl)furan-2-carboxamide], in that order: 0.7 nM, 600 nM, 0.1 nM and 2.6 nM.
For `O=C(N[C@H]1CC[C@H](CCN2CCN(c3cc(-c4ccccc4)cc(N4CCOCC4)n3)CC2)CC1)C1CC1` [Compound I-4, N-((trans)-4-(2-(4-(6-morpholino-4-phenylpyridin-2-yl)piperazin-1-yl)ethyl)cyclohexyl)cyclopropanecarboxamide], in that order: 3.9 nM, 550 nM, 0.05 nM and 2 nM.
For `CCC(=O)N[C@H]1CC[C@H](CCN2CCN(c3cc(-c4cccnc4)cc(N4CCOCC4)n3)CC2)CC1` [IV-1], in that order: 2.7 nM, more than 1000 nM, 0.05 nM and 2.5 nM.
For `CC(=O)N[C@H]1CC[C@H](CCN2CCN(c3cc(-c4ccco4)cc(N4CCOCC4)n3)CC2)CC1` [Compound V-1, N-(trans-4-(2-(4-(4-(furan-2-yl)-6-morpholinopyridin-2-yl)piperazin-1-yl)ethyl)cyclohexyl)acetamide], the Ki was 1.6 nM at 5-HT2A receptor, 530 nM on H1 receptor, 0.7 nM in test [1] and 8.1 nM at D2 receptor.
